Measurements reported in patent US20240180887A1, “USE OF PPAR(gamma) AGONISTS OR MPC INHIBITORS FOR TREATING PRIMARY, INNATE DISEASES OF THE CARDIAC MUSCLE (CARDIOMYOPATHIES)” (PREVENTAGE THERAPEUTICS GMBH, priority 2021, published 2024).
Entries after “also recorded” stand apart in the source; their conditions may differ.

Columns and labels:
[1] = system: αMHC^719/+ HCM mouse model; assay: Preclinical αMHC^719/+ HCM mouse model, overall summary of results; type: in vivo; settings: oral administration in the αMHC^719/+ HCM mouse model
Procedure: The examinations were carried out on an established HCM mouse model, in which an arginine-to-tryptophan mutation at position 719 of the heavy chain of the cardiac mouse alpha-myosin gene was effected by homologous recombination (referred to as αMHC^719/+)^38. Such genetically modified mice increasingly develop the typical pathognomonic disease characteristics of hypertrophic cardiomyopathy such as myocardial hypertrophy and fibrosis with increasing age. The phenotype of this genetically generated HCM mouse model thus simulates the phenotype of HCM patients affected^36,37,38. The manifestation of the disease can be accelerated by subcutaneous administration of the calcineurin inhibitor cyclosporin A (CsA)^9.
Between their 6th and 12th postnatal week, all mice were injected subcutaneously with cyclosporin A (CsA) to accelerate hypertrophic remodeling in the myocardium in the HCM mouse model^9. Half of the mice were treated with the PPARγ agonists rosiglitazone and pioglitazone from the group of thiazolidinediones between their 6th and 12th postnatal week. In their 12th postnatal week, they were subjected to in vivo transthoracic echocardiography. The animals were then euthanized for ex vivo examination (organ removal, histopathology, and determination of radical oxygen species, of mRNA and protein expression in the tissue) (see FIG. 10).D

PPARγ mRNA = assay: Relative expression of PPARγ mRNA in the left ventricular myocardium (RtPCR); type: in vivo, mouse; settings: αMHC^719/+ mice, oral rosiglitazone, 6 weeks, compared to wild-type level
Procedure: FIG. 7 Relative expression of PPARγ mRNA in the left ventricular myocardium of untreated HCM mice and HCM mice (αMHC^719/+) treated with N-acetylcysteine (NAC) or rosiglitazone (Rosi) compared to wild-type mice (WT) after 6 weeks; ***: p<0.001.
RNA isolation was carried out by means of the peqGOLD Total RNA Kit (Peqlab) from the left ventricular myocardium according to the manufacturer's instructions. First-strand cDNA was synthesized from 500 ng of total RNA, which is reverse-transcribed (Reverse Transcription Kit, Invitrogen) with random hexamers (TIB Molbiol). RtPCR analysis is carried out with Perfecta SYBR Green fast Mix (VWR, Germany) in the QIAGEN Rotor-Gene Q (Corbett Rotor-Gene 6000). Quantification is done by means of […] calculation and randomization test^49,50.

HCM mice (αMHC^719/+) [2] = assay: Semi-quantitative myocardial fibrosis score on Masson's trichrome sections, stereoisomers of pioglitazone (experimental setup C); type: in vivo, mouse; settings: αMHC^719/+ mice, 10 mg/kg/day orally, 6 weeks, vs untreated αMHC^719/+
Procedure: FIG. 13 Determination of myocardial fibrosis using histopathological sections of myocardium. The manifestation of myocardial fibrosis (blue-colored in the Masson's trichrome-stained histological sections) was determined semi-quantitatively by two blinded examiners in each case independently of one another. The scores assigned were 0 to 3:0: no fibrosis, 1: mild fibrosis; 2: moderate fibrosis, 3: severe fibrosis; 0.5: no to mild fibrosis, 1.5: mild to moderate fibrosis; 2.5: moderate to severe fibrosis, 3: severe fibrosis. The animals were genotyped in their 3rd postnatal week (as also described in accordance with experimental setup A). Between their 6th and 12th postnatal week, all 65 mice were orally administered a daily dose of 30 mg/kg cyclosporin A (CsA) which was added to their pellet diet to accelerate hypertrophic remodeling in the myocardium in the HCM mouse model^56. Between their 6th and 12th postnatal week, (a) 13 WT and 9 MHC^719/+ mice were in addition treated orally with the (R)-stereoisomer of a thiazolidinedione (pioglitazone) (10 mg/kg/day) or (b) 12 WT and 11 αMHC^719/+ mice were in addition treated orally with the (S)-stereoisomer (pioglitazone) (10 mg/kg/day). In their 12th postnatal week, they were subjected to in vivo transthoracic echocardiography. The animals were then euthanized for ex vivo examination (organ removal and histopathology) (see FIG. 11). Examination by echocardiography was done as follows—specifically: removal of the mice from the cage, weighing and visual assessment of the animals, performance of echocardiography according to standardized, published standard protocols in conscious animals after 30 minutes of observation^39,41,37,40. In order to quantify fibrosis, the removed hearts were fixed in 4% of paraformaldehyde, dehydrated, and placed in paraffin, as described above^37,42,43. 5-μm sections were stained with Masson's trichrome. Semi-quantification of myocardial fibrosis was done independently of one another by two blinded examiners. For this purpose, the percentage of cardiac muscle portions stained blue with Masson's trichrome in relation to the overall stained cardiac muscle was calculated. Perivascular and intramurine structures, the endocardium, and trabeculas were excluded in the calculation of the percentage of fibrosis. The classification was “no fibrosis,” “mild fibrosis,” “moderate fibrosis,” and “severe fibrosis.”

HCM mice (αMHC^719/+) [3] = assay: Echocardiography: maximum left ventricular wall thickness, stereoisomers of pioglitazone (experimental setup C); type: in vivo, mouse; settings: αMHC^719/+ mice, 10 mg/kg/day orally, 6 weeks, vs untreated αMHC^719/+
Text: This experimental protocol examined the action of the two stereoisomers of a thiazolidinedione (pioglitazone) ((S)- and (R)-stereoisomers) in the same hypertrophic cardiomyopathy mouse model as described for experimental setup A. The experimental setup is thus similar to the experimental setup according to A. The animals were genotyped in their 3rd postnatal week (as also described in accordance with experimental setup A). Between their 6th and 12th postnatal week, all 65 mice were orally administered a daily dose of 30 mg/kg cyclosporin A (CsA) which was added to their pellet diet to accelerate hypertrophic remodeling in the myocardium in the HCM mouse model^56. Between their 6th and 12th postnatal week, (a) 13 WT and 9 MHC^719/+ mice were in addition treated orally with the (R)-stereoisomer of a thiazolidinedione (pioglitazone) (10 mg/kg/day) or (b) 12 WT and 11 αMHC^719/+ mice were in addition treated orally with the (S)-stereoisomer (pioglitazone) (10 mg/kg/day). In their 12th postnatal week, they were subjected to in vivo transthoracic echocardiography. The animals were then euthanized for ex vivo examination (organ removal and histopathology) (see FIG. 11). As shown in experimental setup A, in vivo phenotyping of the left ventricular wall thickness and ventricular function was done by means of transthoracic echocardiography, as described above^40,41,39. Examination by echocardiography was done as follows—specifically: removal of the mice from the cage, weighing and visual assessment of the animals, performance of echocardiography according to standardized, published standard protocols in conscious animals after 30 minutes of observation^39,41,37,40. In order to quantify fibrosis, the removed hearts were fixed in 4% of paraformaldehyde, dehydrated, and placed in paraffin, as described above^37,42,43. […] Semi-quantification of myocardial fibrosis was done independently of one another by two blinded examiners. For this purpose, the percentage of cardiac muscle portions stained blue with Masson's trichrome in relation to the overall stained cardiac muscle was calculated. […]

[4] = (R)-Pio p=0.01, (S)-Pio p=0.916
[5] = (R)-Pio p<0.001, (S)-Pio p=0.072

Row | SMILES | changes in biophysical properties in the heart muscle cell and onset of myocardial hypertrophy and fibrosis [1] | myocardial mRNA expression of PPARγ (PPARγ mRNA) | development of myocardial fibrosis (semi-quantitative score 0 to 3) (HCM mice (αMHC^719/+) [2]; [4]) | development of myocardial fibrosis (semi-quantitative score 0 to 3) (HCM mice (αMHC^719/+) [2]; (R)-Pio p=0.01, (S)-Pio p=0.916, listed as (R)-stereoisomer of a thiazolidinedione) | development of myocardial hypertrophy (maximum thickness of the wall of the left ventricle) (HCM mice (αMHC^719/+) [3]; [5]) | development of myocardial hypertrophy (maximum thickness of the wall of the left ventricle) (HCM mice (αMHC^719/+) [3]; (R)-Pio p<0.001, (S)-Pio p=0.072, listed as (R)-stereoisomer of a thiazolidinedione) | development of myocardial fibrosis (semi-quantitative score 0 to 3) (HCM mice (αMHC^719/+) [2]; (R)-Pio p=0.01, (S)-Pio p=0.916, listed as S-stereoisomer of pioglitazone)
1 | CN(CCOc1ccc(CC2SC(=O)NC2=O)cc1)c1ccccn1 (racemic) [rosiglitazone, (RS)-5-({4-[2-(methyl-2-pyridinylamino)ethoxy]phenyl}methyl)-2,4-thiazolidinedione] | largely prevents | increases the myocardial mRNA expression of PPARγ again almost completely to wild-type level |  |  |  |  | 
2 | CCc1ccc(CCOc2ccc(C[C@H]3SC(=O)NC3=O)cc2)nc1 (single isomer, unassigned) [(R)-stereoisomer of pioglitazone] |  |  | significantly inhibited | significantly lessened | significantly inhibited | significantly lessened | 
3 | CCc1ccc(CCOc2ccc(C[C@@H]3SC(=O)NC3=O)cc2)nc1 (single isomer, unassigned) [(S)-stereoisomer of pioglitazone] |  |  | not in a reduction of myocardial fibrosis |  | tends to result in lessened hypertrophy; also recorded: less pronounced |  | cannot be seen
